Measurements from PMC6613200 (International Journal of Nanomedicine, 2019).

Assays:
[1] = SPR binding of peptide aptamer to Au/Cys/carboxyl-GO chip; conditions: carboxyl-GO with peptide aptamer, 1:1 Langmuir model
HSA = test: SPR selectivity, peptide vs interfering HSA; assay type: binding, human; conditions: mixture containing 20 nM BSA and 20 nM HSA with hCG; 100 μM peptide
BSA = test: SPR selectivity, peptide vs interfering BSA; assay type: binding, bovine; conditions: mixture containing 20 nM BSA and 20 nM HSA with hCG; 100 μM peptide

- KA ([1]; flow rate 30 µL/min): 2.81e+07 M⁻¹
- KD (kd/ka) ([1]; flow rate 30 µL/min): 0.36×10^–7 M
- association rate ka ([1]; flow rate 30 µL/min): 32.57 ×10[4] M^−1 s^−1
- association rate ka ([1]; flow rate 60 µL/min): 13.75 ×10[4] M^−1 s^−1
- association rate ka ([1]; flow rate 90 µL/min): 7.89 ×10[4] M^−1 s^−1
Substance: (N-)PPLRINRHILTR(-C) [peptide aptamer]
- interaction of peptide with interfering protein (HSA): no significant interaction between the two proteins and the peptide
- interaction of peptide with interfering protein (BSA): no significant interaction between the two proteins and the peptide
